Results on five compounds are retold here after patent US20110053969A1, “NOVEL DIAZASIPIROAKANES AND THEIR USE FOR TREATMENT OF CCR8 MEDIATED DISEASES” (ASTRAZENECA AB, priority 2005, published 2011).

What is called IC50 is the point on the concentration scale where inhibition reaches its midpoint. By microsomal CLint is commonly meant a measure of how fast metabolising enzymes remove a compound, apart from limits set by blood flow.

Series [1] concerns the target T1, human recombinant chemokine CCR8 receptor (Homo sapiens, UniProt P51685).
T1 construct: purchased Euroscreen ES-136-M; host or cells: CHO-K1 cells (transfected), membrane preparation
Nature of the series: CCL1 SPA binding assay. Conditions: inhibition of 125I CCL1 binding to membranes from CHO-K1 cells transfected with human CCR8. The procedure: Membranes from CHO-K1 cells transfected with human recombinant chemokine CCR8 receptor (ES-136-M) were purchased from Euroscreen. Membrane preparations are stored at −70 C in 7.5 mM Tris-Cl pH 7.5, 12.5 mM MgCl2, 0.3 mM EDTA, 1 mM EGTA, 250 mM sucrose until used.
The CCR8 membranes (50.6 mg/ml) were preincubated with Wheat Germ Agglutinin SPA beads (4.05 mg/ml) in assay buffer (50 mM HEPES, 1 mM CaCl2x2H2O, 5 mM MgCl2x6H2O, 75 mM NaCl, 0.1% BSA) at pH=7.4 for 2 hours on ice. A 10-point dose-response curve (final concentrations 50 μM, 16.7 μM, 5.6 μM, 1.9 μM, 0.62 μM, 0.21 μM, 0.069 μM, 0.023 μM) was prepared by diluting compounds by serial dilution 1:3 in DMSO. In the screening plate (Polystyrene NBS plates, Costar Corning 3604) 1 μl from the DMSO solutions of compounds was transferred into each well. 1 μl of DMSO was added to the blank control wells and 1 μl unlabeled CCL1 (300 nM) was added to background control wells. 50 μl of the SPA bead-membrane mixture was added into each well. Finally, 50 μl. ([…]) ^125I CCL1 (2000 Ci/mM) was added to each well. Plates were then incubated at RT with shaking (700 rpm) for 90 minutes followed by 30 minutes at RT without shaking. The plate was read in a Wallac MicroBeta counter for 2 minutes/well.

The nature of series [2]: Human microsomal stability assay. It is filed as in vitro ADME. Conditions: human microsomes (Xenotech), 1 mg microsomal protein/mL, 2.5 μM compound, 2 mM NADPH, pH 7.4, 37° C., read-out: Human Microsomal Stability (intrinsic Clearance, CLint). The procedure: Human Microsomal Stability Assay
The assay is run in a 96-deepwell format at 1 mg microsomal protein (Xenotech)/mL in potassium phosphate buffer (pH 7.4) with a compound concentration of 2.5 μM and a NADPH concentration of 2 mM. Samples at four time-points (0, 5, 15 and 30 minutes) are withdrawn and the enzymatic reaction is terminated by protein precipitation with 1% acetic acid in acetonitrile. The incubations are performed on a thermostated plate (37° C.) placed on a Tecan worktable, and all liquid handling was performed robotically. After centrifugation of the samples, the supernatants are pooled in sets of four before they are analysed by liquid chromatography with tandem mass spectrometry detection (LC/MS/MS) using multiple reaction monitoring (MRM). Data are presented as intrinsic Clearance (CLint), μl/min/mg protein, calculated from the initial linear part of the compound disappearance curve.

Where a name gives a salt, the structure may show the parent alone.

T1 sequence (P51685 whole entry): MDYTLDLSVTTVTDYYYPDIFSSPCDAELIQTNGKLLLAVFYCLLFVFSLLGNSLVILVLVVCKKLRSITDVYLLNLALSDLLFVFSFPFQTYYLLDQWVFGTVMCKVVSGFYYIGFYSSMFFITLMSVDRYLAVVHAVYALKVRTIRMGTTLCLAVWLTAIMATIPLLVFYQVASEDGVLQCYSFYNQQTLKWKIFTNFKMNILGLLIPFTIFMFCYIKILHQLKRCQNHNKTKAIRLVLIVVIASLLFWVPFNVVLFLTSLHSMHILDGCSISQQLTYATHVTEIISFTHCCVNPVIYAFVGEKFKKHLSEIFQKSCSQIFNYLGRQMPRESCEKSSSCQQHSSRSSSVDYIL

Regarding `CC(C)COc1ccccc1CN1CCC2(CC1)CCN(C(=O)c1ccc[nH]c1=O)CC2` [A, 3-{[9-(2-isobutoxybenzyl)-3,9-diazaspiro[5.5]undec-3-yl]carbonyl}pyridin-2(1H)-one, reference compound], the IC50 in series [1] was found to be 1950 nM.

For `CC(C)COc1ccccc1CN1CCC2(CC1)CCN(C(=O)c1ccc(=O)[nH]c1)CC2` [B, 5-{[9-(2-isobutoxybenzyl)-3,9-diazaspiro[5.5]undec-3-yl]carbonyl}pyridin-2(1H)-one, reference compound], in series [1], the IC50 stood at 1900 nM.

Regarding `COc1ccccc1Oc1ccccc1CN1CCC2(CC1)CCN(C(=O)c1ccc[nH]c1=O)CC2` [Example 2, 3-({9-[2-(2-methoxyphenoxy)benzyl]-3,9-diazaspiro[5.5]undec-3-yl}carbonyl)pyridin-2(1H)-one], in series [1], the IC50 came out at 62 nM. For the same compound, in series [2], the microsomal CLint at 2.5 μM was less than 10 µL/min/mg.

Consider `COc1ccccc1Oc1ccccc1CN1CCC2(CC1)CCN(C(=O)c1ccc(=O)[nH]c1C(F)(F)F)CC2` [Example 3, 5-({9-[2-(2-methoxyphenoxy)benzyl]-3,9-diazaspiro[5.5]undec-3-yl}carbonyl)-6-(trifluoromethyl)pyridin-2(1H)-one trifluoroacetate], for which, in series [1], the IC50 turned out to be 83 nM. Also, the microsomal CLint at 2.5 μM in series [2] was less than 10 µL/min/mg.

With `COc1ccccc1Oc1cccc(CN2CCC3(CC2)CCN(C(=O)c2ccc[nH]c2=O)CC3)c1` [Example 4, 3-({9-[3-(2-methoxyphenoxy)benzyl]-3,9-diazaspiro[5.5]undec-3-yl}carbonyl)pyridin-2(1H)-one], the IC50 in series [1] turned out to be 15 nM. For the same compound, the intrinsic clearance (microsomal CLint) at 2.5 μM in series [2] was 21.7 µL/min/mg.
